Where “and” joins values, the source holds several entries; their conditions need not be identical. Equal values may be shown once.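 Protocol summary: plate cells (96-well), add compound at 5 concentrations, incubate 48 h, interpolate endpoints linearly. Here, GI50 denotes the concentration required for 50% inhibition of growth. TGI marks complete inhibition of growth.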
What was measured:
Experiment in all cases: inhibition of tumour cell growth, NCI panel, 48 h
[1] = test system: BT-549 breast
[2] = test system: HS 578T breast
[3] = test system: KM12 colon
[4] = test system: MOLT-4 leukemia
[5] = test system: NCI-H23 lung
[6] = test system: NCI-H460 lung
[7] = test system: SN12C renal
[8] = test system: SR leukemia
[9] = test system: UO-31 renal
[10] = test system: HCC-2998 colon

Compound	TGI [1]	TGI [2]	TGI [3]	TGI [4]	TGI [5]	TGI [6]	TGI [7]	TGI [8]	TGI [9]	TGI [10]	GI50 [1]	GI50 [10]	GI50 [2]	GI50 [3]	GI50 [4]	GI50 [5]	GI50 [6]	GI50 [7]	GI50 [8]	GI50 [9]
COc1cc(OC(=O)c2ccccc2)cc2c1C(=O)C=CC2=O	29.8 µM	69.3 µM	38.8 µM	14.6 µM	33.3 µM	60.9 µM	45 µM	5.03 µM	22.8 µM											
N#CC(NC12CC3CC(CC(C3)C1)C2)c1ccc2c(c1)OCO2 (stereo unspecified)	> 100 µM	> 100 µM	> 100 µM	> 100 µM	> 100 µM	> 100 µM	> 100 µM	> 100 µM	> 100 µM	> 100 µM										
CC(C)N(Cc1ccccc1)c1c(S)ssc1=S	9.21 µM	7.08 µM	21.7 µM	7.39 µM	96.3 µM	10.7 µM	19.7 µM	7.89 µM	70.6 µM	74 µM	3.01 µM	4.36 µM	0.861 µM	2.47 µM	1.69 µM	3.83 µM	2.33 µM	2.42 µM	2.16 µM	3.6 µM
O=C(CCCCCCCCC(=O)N/N=C\c1ccccc1O)N/N=C\c1ccccc1O	> 100 µM	41.6 µM	> 40.3 µM	7.37 µM	21.9 µM	1.47 µM	> 42.4 µM	12.9 µM	3.9 µM	> 100 µM	0.982 µM	2.92 µM	3.55 µM	0.785 µM	0.338 µM	0.75 µM	0.27 µM	0.7 µM	0.16 µM	0.197 µM
COC(=O)c1nc(-c2ccccc2)oc1S(=O)(=O)Cc1ccccc1	19.1 µM	60.1 µM	39.2 µM	5.57 µM	34.4 µM	40 µM	15.5 µM	16.5 µM	2.84 µM	36.3 µM	6.5 µM	19 µM	19.2 µM	20.8 µM	2.11 µM	16.2 µM	19.8 µM	4.27 µM	3.03 µM	1.48 µM
CC1CCC(NC(=O)N(CCCl)N=O)CC1 (stereo unspecified)	57.2 µM	155 µM	112 µM	40.2 µM and 66.6 µM	129 µM	100 µM	41.7 µM and 81.4 µM		92 µM	93.9 µM				36.6 µM		61.8 µM	28 µM	19.1 µM	0.832 µM	61.2 µM
COc1cc(C[C@H]2c3cc(OC)c(OC)cc3CCN2C)c(Oc2cc3c(cc2OC)-c2c(OC)c(OC)cc4c2[C@H](C3)N(C)CC4)cc1OC	13.1 µM	13.1 µM	20.4 µM and 26.7 µM	20.4 µM and 12.2 µM	30.2 µM and 36.2 µM	20.1 µM and 27.5 µM	39.8 µM and 30.8 µM	28.6 µM and 7.84 µM	16.8 µM and 22.6 µM	15.1 µM and 14.4 µM		4.9 µM		13.3 µM	4.06 µM	17.8 µM	14.1 µM	16.6 µM	2.44 µM	9.73 µM
CCC1C2Cc3ccc(O)cc3C1(CC)CCN2C (stereo unspecified)	> 100 µM	> 100 µM	> 100 µM	> 100 µM	> 100 µM	> 100 µM	> 100 µM	> 100 µM	> 100 µM											
CC(C)(C)n1cc(-c2ccnc(NCCCNS(=O)(=O)c3ccc(C(F)(F)F)cc3)c2)c(-c2cccc(O)c2)n1	3.05 µM	4.84 µM		6.92 µM	3.18 µM	3.57 µM	3.03 µM	10.5 µM	3.06 µM	3.25 µM	1.61 µM	1.82 µM	1.98 µM		2.33 µM	1.67 µM	1.86 µM	1.61 µM	2.21 µM	1.58 µM
CCN(CC)CCCC(C)Nc1ccnc2cc(Oc3ccccc3)ccc12 (stereo unspecified)	21.3 µM and 30.4 µM	24.3 µM and 56.5 µM	24.3 µM and > 100 µM	17.8 µM and 82.8 µM	28.7 µM and > 100 µM	25.9 µM and 78.7 µM	39.5 µM and > 100 µM	12.9 µM and 6.66 µM	3.09 µM and 27.7 µM	7.94 µM and 36.9 µM	7.77 µM and 14.9 µM	2.34 µM and 6.92 µM	5.5 µM and 16.7 µM	8.52 µM and 10.6 µM	4.32 µM and 9.05 µM	10.4 µM and 22.8 µM	9.21 µM and 12.6 µM	9.08 µM and 19.6 µM	2.6 µM and 2.27 µM	1.3 µM and 11.3 µM
CN(C)CCN1C(=O)c2ccccc2N(C)c2ccccc21	> 100 µM	> 100 µM	> 100 µM	> 100 µM	> 100 µM	> 100 µM	> 100 µM	> 100 µM	> 100 µM	> 100 µM	> 100 µM	> 100 µM	> 100 µM	> 100 µM	> 100 µM	> 100 µM	> 100 µM	> 100 µM	> 100 µM	> 100 µM
COc1cc([C@@H]2OC[C@@H]3C(c4cc(OC)c5c(c4)OCO5)OC[C@@H]32)cc(OC)c1OC (stereo partly specified)	> 100 µM	> 100 µM	> 100 µM	> 100 µM	> 100 µM	> 100 µM		> 100 µM	> 100 µM	> 100 µM										
c1ccc2[nH]c(-c3ccc(-c4nccc5c4[nH]c4ccccc45)cc3)nc2c1	5.42 µM	5.93 µM	15.7 µM	6.11 µM	17.7 µM	9.79 µM		6.36 µM	3.27 µM	15.9 µM	2.12 µM	3.96 µM	2.23 µM	3.59 µM	2.32 µM	3.47 µM	3.03 µM		2.21 µM	1.69 µM
COc1ccc(C(=O)OC2C(OC3C(O)COC(O[C@H]4C[C@H]5[C@@H]6CC=C7C[C@@H](O)CC[C@]7(C)[C@H]6CC[C@]5(C)[C@H]4[C@H](C)C(=O)CCC(C)C)C3OC(N)=O)OCC(O)C2O)cc1 (stereo partly specified)	3.71 µM	0.37 µM	4.37 µM	0.0212 µM	4.81 µM	0.496 µM	7.04 µM	0.493 µM	0.425 µM	6.16 µM	< 0.003 µM	1.21 µM	< 0.003 µM	0.175 µM	0.00564 µM	0.375 µM	0.0142 µM	2.61 µM	0.00567 µM	0.0944 µM

— PubChem BioAssay (NCI)
